pKi: −log10 of the molar value. Like-named read-outs stand apart in the source and are kept apart here.
How the values were obtained:
MMP-10h = MMP-10h (Homo sapiens (Human), UniProt P09238); test: Inhibition constant (Ki) on MMP-10h; assay type: biochemical; conditions: human MMP-10
MMP-13h = MMP-13h (Homo sapiens (Human), UniProt P45452); test: Inhibition constant (Ki) on MMP-13h; assay type: biochemical; conditions: human MMP-13
How it was run: (§1)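 Readout is Ki, obtained with a literature enzymatic protocol; all enzymes tested were human.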

MMP-1h = MMP-1h (Homo sapiens (Human), UniProt P03956); test: Inhibition constant (Ki) on MMP-1h; assay type: biochemical; conditions: human MMP-1
Sequence of MMP-1h (P03956 100-469): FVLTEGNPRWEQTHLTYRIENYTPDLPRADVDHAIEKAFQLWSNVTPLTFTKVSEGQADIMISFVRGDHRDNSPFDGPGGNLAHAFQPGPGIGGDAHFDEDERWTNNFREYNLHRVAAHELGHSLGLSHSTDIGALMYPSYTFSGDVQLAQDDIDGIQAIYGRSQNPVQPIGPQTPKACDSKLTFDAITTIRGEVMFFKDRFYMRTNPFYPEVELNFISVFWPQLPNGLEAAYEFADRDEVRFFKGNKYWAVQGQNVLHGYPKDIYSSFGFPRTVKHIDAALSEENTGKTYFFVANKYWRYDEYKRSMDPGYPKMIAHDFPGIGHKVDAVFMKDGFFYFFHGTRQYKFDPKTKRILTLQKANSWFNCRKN
Description: (§2) The inhibition constant Ki of these compounds has been determined according to the protocol described by Devel et al, 2006, J. Biol. Chem. (7).
(§3) In this table I and also in table II below, “h” corresponds to human. All of the compounds have therefore been evaluated on human MMPs.

MMP-2h = MMP-2h (Homo sapiens (Human), UniProt P08253); test: Inhibition constant (Ki) on MMP-2h; assay type: biochemical; conditions: human MMP-2
Sequence of MMP-2h (P08253 110-660): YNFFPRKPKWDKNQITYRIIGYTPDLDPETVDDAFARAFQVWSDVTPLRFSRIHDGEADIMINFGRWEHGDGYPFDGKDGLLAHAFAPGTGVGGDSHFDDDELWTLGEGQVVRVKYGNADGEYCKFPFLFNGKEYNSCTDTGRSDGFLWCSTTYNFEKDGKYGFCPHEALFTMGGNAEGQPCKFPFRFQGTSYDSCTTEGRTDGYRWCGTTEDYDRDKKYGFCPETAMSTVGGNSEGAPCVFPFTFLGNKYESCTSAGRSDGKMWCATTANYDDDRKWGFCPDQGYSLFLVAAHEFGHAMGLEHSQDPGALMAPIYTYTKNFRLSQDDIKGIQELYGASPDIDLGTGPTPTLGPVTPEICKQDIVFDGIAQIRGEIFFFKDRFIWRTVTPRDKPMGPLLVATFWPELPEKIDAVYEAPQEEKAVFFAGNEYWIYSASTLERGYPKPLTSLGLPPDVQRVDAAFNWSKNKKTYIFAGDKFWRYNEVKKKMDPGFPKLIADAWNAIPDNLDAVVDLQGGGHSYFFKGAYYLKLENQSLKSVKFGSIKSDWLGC
How it was run: as §1

MMP-8h = MMP-8h (Homo sapiens (Human), UniProt P22894); test: Inhibition constant (Ki) on MMP-8h; assay type: biochemical; conditions: human MMP-8
Sequence of MMP-8h (P22894 101-467): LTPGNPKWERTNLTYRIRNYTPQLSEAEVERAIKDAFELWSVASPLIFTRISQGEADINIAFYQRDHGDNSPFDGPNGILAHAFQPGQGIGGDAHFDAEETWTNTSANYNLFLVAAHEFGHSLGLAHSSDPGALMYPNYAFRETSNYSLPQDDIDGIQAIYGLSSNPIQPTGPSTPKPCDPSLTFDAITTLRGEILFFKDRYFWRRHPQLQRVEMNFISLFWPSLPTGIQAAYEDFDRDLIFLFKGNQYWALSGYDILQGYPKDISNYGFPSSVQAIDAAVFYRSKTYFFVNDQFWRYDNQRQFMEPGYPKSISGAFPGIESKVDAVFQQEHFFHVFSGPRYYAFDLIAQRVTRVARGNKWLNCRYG

[1] = Stability test in mouse blood; assay type: in vitro ADME; conditions: after 24 hours in mouse blood
Description: The loss of 50% of the starting material can be attributed to a phenomenon of nonspecific association of the compound with the wall of the eppendorf. It should be noted that this 50% loss of the compound was also observed after 24 hours for a solution at 10 nM in PBS buffer or in a solution at 1 μM of PBS (Bovine Serum Albumin).

MMP-3h = MMP-3h (Homo sapiens (Human), UniProt P08254); test: Inhibition constant (Ki) on MMP-3h; assay type: biochemical; conditions: human MMP-3
Sequence of MMP-3h (P08254 100-477): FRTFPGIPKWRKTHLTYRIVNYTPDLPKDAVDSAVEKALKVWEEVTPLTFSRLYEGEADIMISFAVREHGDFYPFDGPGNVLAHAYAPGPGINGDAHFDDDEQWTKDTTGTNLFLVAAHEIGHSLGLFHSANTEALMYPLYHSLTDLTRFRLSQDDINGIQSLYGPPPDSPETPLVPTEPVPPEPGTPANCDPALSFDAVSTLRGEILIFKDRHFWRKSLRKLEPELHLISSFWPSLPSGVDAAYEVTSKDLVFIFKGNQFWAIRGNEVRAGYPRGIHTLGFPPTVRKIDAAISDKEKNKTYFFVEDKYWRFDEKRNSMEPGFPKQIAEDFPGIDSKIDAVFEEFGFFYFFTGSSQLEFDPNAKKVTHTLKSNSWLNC
How it was run: as §1

MMP-9h = MMP-9h (Homo sapiens (Human), UniProt P14780); test: Inhibition constant (Ki) on MMP-9h; assay type: biochemical; conditions: human MMP-9
Sequence of MMP-9h (P14780 94-707): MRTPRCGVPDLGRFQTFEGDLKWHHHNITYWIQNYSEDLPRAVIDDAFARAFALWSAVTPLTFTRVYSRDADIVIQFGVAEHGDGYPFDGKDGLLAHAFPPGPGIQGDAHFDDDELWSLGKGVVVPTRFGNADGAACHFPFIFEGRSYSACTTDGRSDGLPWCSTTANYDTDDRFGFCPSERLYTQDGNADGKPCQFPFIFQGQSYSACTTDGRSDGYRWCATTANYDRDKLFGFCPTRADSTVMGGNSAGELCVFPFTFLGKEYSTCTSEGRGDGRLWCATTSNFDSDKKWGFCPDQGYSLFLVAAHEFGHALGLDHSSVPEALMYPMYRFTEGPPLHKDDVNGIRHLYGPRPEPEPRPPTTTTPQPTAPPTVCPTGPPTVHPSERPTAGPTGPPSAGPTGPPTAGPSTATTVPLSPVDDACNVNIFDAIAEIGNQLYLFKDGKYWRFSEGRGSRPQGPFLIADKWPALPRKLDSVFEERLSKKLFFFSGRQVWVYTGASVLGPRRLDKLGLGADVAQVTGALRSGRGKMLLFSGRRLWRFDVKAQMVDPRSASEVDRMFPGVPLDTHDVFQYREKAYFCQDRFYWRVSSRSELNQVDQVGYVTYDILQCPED
How it was run: as §1

MMP-14h = MMP-14h (Homo sapiens (Human), UniProt P50281); test: Inhibition constant (Ki) on MMP-14h; assay type: biochemical; conditions: human MMP-14
How it was run: as §1

MMP-7h = MMP-7h (Homo sapiens (Human), UniProt P09237); test: Inhibition constant (Ki) on MMP-7h; assay type: biochemical; conditions: human MMP-7
Sequence of MMP-7h (P09237 95-267): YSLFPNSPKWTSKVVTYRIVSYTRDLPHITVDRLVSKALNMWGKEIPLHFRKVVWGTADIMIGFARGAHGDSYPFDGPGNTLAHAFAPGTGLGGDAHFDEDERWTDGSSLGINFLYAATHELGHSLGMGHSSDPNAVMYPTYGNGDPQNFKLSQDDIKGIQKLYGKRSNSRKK
Description: as §2, §3

[2] = Determination of the plasma concentration in mice after infusion; conditions: mouse, intravenous, 10 mg/kg
MMP-12h [3] = biological target: T1, MMP-12h (Homo sapiens (Human), UniProt P39900); test: Inhibition constant (Ki) on MMP-12h; assay type: biochemical; conditions: read-out: Ki MMP-12h; human MMP-12
T1 sequence (P39900 106-470): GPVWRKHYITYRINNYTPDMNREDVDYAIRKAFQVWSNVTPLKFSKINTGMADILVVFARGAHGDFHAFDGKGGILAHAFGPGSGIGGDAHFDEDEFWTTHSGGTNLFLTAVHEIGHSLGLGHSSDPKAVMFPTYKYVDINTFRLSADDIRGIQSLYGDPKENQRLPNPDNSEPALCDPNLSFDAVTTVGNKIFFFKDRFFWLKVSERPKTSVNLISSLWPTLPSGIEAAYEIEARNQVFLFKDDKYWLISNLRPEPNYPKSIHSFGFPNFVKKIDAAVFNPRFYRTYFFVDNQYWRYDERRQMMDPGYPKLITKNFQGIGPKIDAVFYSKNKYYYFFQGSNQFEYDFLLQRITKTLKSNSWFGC

human MMPs = conditions: reported by Devel et al., J. Biol. Chem. 2006; cited from earlier work
MMP-12h [4] = biological target: T1, MMP-12h; conditions: reported by Devel et al., J. Biol. Chem. 2006; read-out: inhibition constant Ki for human MMP-12; cited from earlier work

Sequence of MMP-10h (P09238 99-476): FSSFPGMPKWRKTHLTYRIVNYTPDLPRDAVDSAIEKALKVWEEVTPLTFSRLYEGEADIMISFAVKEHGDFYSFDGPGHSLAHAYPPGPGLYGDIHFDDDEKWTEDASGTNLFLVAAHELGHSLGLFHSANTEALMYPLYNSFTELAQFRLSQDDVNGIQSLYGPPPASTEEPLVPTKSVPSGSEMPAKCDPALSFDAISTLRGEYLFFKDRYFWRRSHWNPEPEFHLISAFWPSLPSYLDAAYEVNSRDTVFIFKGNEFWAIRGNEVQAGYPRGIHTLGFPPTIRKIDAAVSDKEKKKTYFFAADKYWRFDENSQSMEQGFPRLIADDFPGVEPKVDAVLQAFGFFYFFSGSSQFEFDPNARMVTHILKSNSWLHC

NC(=O)[C@H](CCC(=O)O)NC(=O)[C@H](CCC(=O)O)NC(=O)CCc1ccc(-c2ccccc2)cc1 [Compound 40, (S)-5-amino-4-((S)-2-(3-(biphenyl-4-yl)propanamido)-4-carboxybutanamido)-5-oxopentanoic acid]
pKi (MMP-10h): < 6.00
pKi (MMP-13h): 6.16
pKi (MMP-1h): < 4.00
pKi (MMP-2h): 6.35
pKi (MMP-8h): 6.65
by-product resulting from the compound ([1]; LC-MS and MS/MS): No by-product
amount detected in intact form ([1]; LC-MS, initial solution 10 nM): 50 fmol
loss of the starting material ([1]; attributed to nonspecific association with the eppendorf wall): 50%
pKi (MMP-3h): < 5.30
pKi (MMP-9h): < 6.00
pKi (MMP-14h): < 5.30
pKi (MMP-7h): < 5.00

Cc1ccc(-c2ccc(CCC(=O)N[C@@H](CCC(=O)O)C(=O)N[C@@H](CCC(=O)O)C(N)=O)cc2)s1 [Compound 91, (S)-5-amino-4-((S)-4-carboxy-2-(3-(4-(5-methylthiophen-2-yl)phenyl)propanamido)butanamido)-5-oxopentanoic acid]
pKi (MMP-10h; read-out: Ki MMP-10h): 6.45
pKi (MMP-13h; read-out: Ki MMP-13h): 6.25
pKi (MMP-2h; read-out: Ki MMP-2h): 7.01
concentration at 5 min [2]: 1000 nM
pKi (MMP-8h; read-out: Ki MMP-8h): 7.99
pKi (MMP-12h [3]): 8.74
pKi (MMP-3h; read-out: Ki MMP-3h): < 6.00
pKi (MMP-9h; read-out: Ki MMP-9h): 6.62
pKi (MMP-14h; read-out: Ki MMP-14h): < 6.00

NC(=O)[C@H](CCC(=O)O)NC(=O)[C@H](CCC(=O)O)NC(=O)[C@H](Cc1cc(-c2ccc(-c3cccc(Cl)c3)cc2)no1)CP(=O)(O)c1ccc(Br)cc1 [RXP470, reference compound]
pKi (MMP-10h; read-out: Ki MMP-10h): 8.08
pKi (MMP-13h; read-out: Ki MMP-13h): 7.89
potency toward MMPs 1, 2, 3, 7, 8, 9, 11, 13 and 14 compared with MMP-12 (human MMPs): two to three orders of magnitude less powerful
pKi (MMP-2h; read-out: Ki MMP-2h): 7.14
pKi (MMP-8h; read-out: Ki MMP-8h): 7.11
pKi (MMP-12h [3]): 9.70
pKi (MMP-12h [4]): 9.40
pKi (MMP-3h; read-out: Ki MMP-3h): 7.24
pKi (MMP-9h; read-out: Ki MMP-9h): 6.07
pKi (MMP-14h; read-out: Ki MMP-14h): 7.10
